Measured values from patent US12545673B2, “Imidazopyridine derivative and pharmaceutical composition comprising same as active ingredient” (TSD LIFE SCIENCES CO., LTD., priority 2019, dated 2026).

Assays:
[1] = test system: gastric cancer cell line AGS; test: Cancer cell proliferation inhibitory activity evaluation 2 (CCK-8), AGS; format: cell-based; conditions: Homo sapiens; 10 μM, 72 hours, CCK-8; read-out: Cancer cell proliferation inhibitory activity AGS
Protocol: (§1) In order to identify whether the compounds have anticancer activity, the acute myeloid leukemia cell line U937, the acute lymphoblastic leukemia cell line Jurkat, the gastric cancer cell lines AGS, […], and the human lung cancer cell line A549 were used. The cell line was cultured using RPMI-1640 medium (U937, Jurkat, AGS, A549) or DMEM (Hs746T) medium containing 10% fetal bovine serum. Welgene products were used as the medium, and hyclone products were used for fetal bovine serum, and 1% of antibiotics for cell culture from Gibco were used as the culture medium.

[2] = test system: acute lymphoblastic leukemia cell line Jurkat; test: Cancer cell proliferation inhibitory activity evaluation 2 (CCK-8), Jurkat; format: cell-based; conditions: Homo sapiens, 10 μM, 72 hours, CCK-8, read-out: Cancer cell proliferation inhibitory activity Jurkat
Protocol: as §1

[3] = test system: acute myeloid leukemia cell line U937; test: Cancer cell proliferation inhibitory activity evaluation 2 (CCK-8), U937; format: cell-based; conditions: Homo sapiens, U-937; 10 μM, 72 hours, CCK-8 (Table 3); read-out: Cancer cell proliferation inhibitory activity U937
Protocol: as §1

MLK3 = MLK3 (Homo sapiens (Human), UniProt Q16584); test: Evaluation of inhibitory activity of enzyme units, MLK3 ([γ-33P]-ATP filter assay); conditions: read-out: IC50(nM) MLK3
MLK1 = MLK1 (Homo sapiens (Human), UniProt P80192); test: Evaluation of inhibitory activity of enzyme units, MLK1 ([γ-33P]-ATP filter assay); format: biochemical
Sequence of MLK1 (P80192 whole entry, looked up): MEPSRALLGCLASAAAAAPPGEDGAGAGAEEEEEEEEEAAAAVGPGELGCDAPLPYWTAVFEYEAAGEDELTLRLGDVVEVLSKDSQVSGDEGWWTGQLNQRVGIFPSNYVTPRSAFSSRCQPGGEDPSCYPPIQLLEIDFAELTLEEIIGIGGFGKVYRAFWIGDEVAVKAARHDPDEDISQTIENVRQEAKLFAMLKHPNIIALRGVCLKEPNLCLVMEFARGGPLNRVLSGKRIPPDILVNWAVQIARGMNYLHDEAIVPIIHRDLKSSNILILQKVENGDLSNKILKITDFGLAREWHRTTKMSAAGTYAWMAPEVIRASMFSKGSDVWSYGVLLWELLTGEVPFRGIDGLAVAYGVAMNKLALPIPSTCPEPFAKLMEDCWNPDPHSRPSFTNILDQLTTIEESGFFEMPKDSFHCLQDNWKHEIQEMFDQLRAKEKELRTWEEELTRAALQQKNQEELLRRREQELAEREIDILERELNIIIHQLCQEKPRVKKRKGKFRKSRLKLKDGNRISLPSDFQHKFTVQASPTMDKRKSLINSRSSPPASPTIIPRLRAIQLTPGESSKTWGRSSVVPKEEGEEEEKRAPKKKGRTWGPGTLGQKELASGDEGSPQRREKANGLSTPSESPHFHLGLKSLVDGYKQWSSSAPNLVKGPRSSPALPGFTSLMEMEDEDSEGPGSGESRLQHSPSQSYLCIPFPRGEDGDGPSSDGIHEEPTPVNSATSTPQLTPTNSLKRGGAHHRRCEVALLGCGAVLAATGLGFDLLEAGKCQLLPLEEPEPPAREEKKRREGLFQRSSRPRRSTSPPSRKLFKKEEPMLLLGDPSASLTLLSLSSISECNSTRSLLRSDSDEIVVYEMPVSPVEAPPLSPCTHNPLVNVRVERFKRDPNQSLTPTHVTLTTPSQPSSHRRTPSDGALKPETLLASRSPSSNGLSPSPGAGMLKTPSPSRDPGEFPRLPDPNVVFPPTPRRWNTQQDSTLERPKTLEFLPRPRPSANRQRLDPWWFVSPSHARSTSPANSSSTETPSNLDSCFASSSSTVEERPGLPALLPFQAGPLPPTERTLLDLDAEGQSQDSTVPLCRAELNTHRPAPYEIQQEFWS

Sequence of MLK3 (Q16584 whole entry, looked up): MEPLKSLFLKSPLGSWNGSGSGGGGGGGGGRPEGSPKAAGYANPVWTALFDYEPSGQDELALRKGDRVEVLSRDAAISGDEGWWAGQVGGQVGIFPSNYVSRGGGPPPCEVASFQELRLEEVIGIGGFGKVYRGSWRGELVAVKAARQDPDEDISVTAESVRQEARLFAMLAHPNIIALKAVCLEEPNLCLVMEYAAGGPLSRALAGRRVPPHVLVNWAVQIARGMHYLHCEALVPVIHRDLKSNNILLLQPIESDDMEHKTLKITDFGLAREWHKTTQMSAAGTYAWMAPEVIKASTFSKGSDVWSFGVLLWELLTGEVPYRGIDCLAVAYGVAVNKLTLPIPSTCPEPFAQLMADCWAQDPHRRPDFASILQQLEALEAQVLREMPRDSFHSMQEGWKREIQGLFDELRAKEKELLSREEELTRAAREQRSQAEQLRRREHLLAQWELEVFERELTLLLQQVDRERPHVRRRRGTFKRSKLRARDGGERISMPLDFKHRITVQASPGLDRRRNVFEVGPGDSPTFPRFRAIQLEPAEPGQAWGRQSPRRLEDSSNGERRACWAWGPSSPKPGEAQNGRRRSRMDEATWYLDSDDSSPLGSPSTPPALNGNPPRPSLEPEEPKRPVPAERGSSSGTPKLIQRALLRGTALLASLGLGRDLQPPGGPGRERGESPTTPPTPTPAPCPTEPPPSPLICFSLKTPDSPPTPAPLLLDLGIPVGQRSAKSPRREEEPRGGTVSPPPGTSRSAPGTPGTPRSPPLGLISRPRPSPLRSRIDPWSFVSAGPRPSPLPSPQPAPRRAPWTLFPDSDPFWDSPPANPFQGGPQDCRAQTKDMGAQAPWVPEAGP

CCS(=O)(=O)N1CC[C@H](Nc2c(Br)cnc3[nH]c(-c4cc(C)n(-c5ccc(S(=O)(=O)N6CCOCC6)cc5)c4C)nc23)C1 [Example 10, (S)-6-bromo-2-(2,5-dimethyl-1-(4-(morpholinosulfonyl)phenyl)-1H-pyrrol-3-yl)-N-(1-(ethylsulfonyl)pyrrolidine-3-yl)-3H-imidazo[4,5-b]pyridine-7-amine]
inhibition at 10 µM [1]: 10 to 50% | inhibition at 10 µM [2]: > 50% | inhibition at 10 µM [3]: 10 to 50% | IC50 (MLK3): 7 nM

Cc1cc(-c2nc3c(Nc4cccc(S(N)(=O)=O)c4)c(Br)cnc3[nH]2)c(C)n1-c1cccc(C(=O)N2CCOCC2)c1 [Example 28, 3-((6-bromo-2-(2,5-dimethyl-1-(3-(morpholine-4-carbonyl)phenyl)-1H-pyrrol-3-yl)-3H-imidazo[4,5-b]pyridine-7-yl)amino)benzenesulfonamide]
inhibition at 10 µM [1]: 10 to 50% | inhibition at 10 µM [2]: 10 to 50% | inhibition at 10 µM [3]: < 10% | IC50 (MLK3): 57 nM

Cc1cc(-c2nc3c(Nc4cccc(S(N)(=O)=O)c4)c(Br)cnc3[nH]2)c(C)n1-c1ccc(S(=O)(=O)N2CCOCC2)cc1 [Example 29, 3-((6-bromo-2-(2,5-dimethyl-1-(4-(morpholinosulfonyl)phenyl)-1H-pyrrol-3-yl)-3H-imidazo[4,5-b]pyridine-7-yl)amino)benzenesulfonamide]
inhibition at 10 µM [1]: 10 to 50% | inhibition at 10 µM [2]: 10 to 50% | inhibition at 10 µM [3]: < 10% | IC50 (MLK3): 25 nM

Cc1cc(-c2nc3c(Nc4cccc(S(N)(=O)=O)c4)c(Br)cnc3[nH]2)c(C)n1-c1cccc(S(=O)(=O)N2CCOCC2)c1 [Example 30, 3-((6-bromo-2-(2,5-dimethyl-1-(3-(morpholinosulfonyl)phenyl)-1H-pyrrol-3-yl)-3H-imidazo[4,5-b]pyridine-7-yl)amino)benzenesulfonamide]
inhibition at 10 µM [1]: 10 to 50% | inhibition at 10 µM [2]: 10 to 50% | inhibition at 10 µM [3]: < 10%

Cc1cc(NS(C)(=O)=O)ccc1-n1c(C)cc(-c2nc3c(Nc4cccc(S(N)(=O)=O)c4)c(Br)cnc3[nH]2)c1C [Example 32, 3-((6-bromo-2-(2,5-dimethyl-1-(2-methyl-4-(methylsulfonamido)phenyl)-1H-pyrrol-3-yl)-3H-imidazo[4,5-b]pyridine-7-yl)amino)benzenesulfonamide]
inhibition at 10 µM [1]: 10 to 50% | inhibition at 10 µM [2]: 10 to 50% | inhibition at 10 µM [3]: 10 to 50% | IC50 (MLK3): 32 nM

Cc1c(NS(C)(=O)=O)cccc1-n1c(C)cc(-c2nc3c(Nc4cccc(S(N)(=O)=O)c4)c(Br)cnc3[nH]2)c1C [Example 34, 3-((6-bromo-2-(2,5-dimethyl-1-(2-methyl-3-(methylsulfonamido)phenyl)-1H-pyrrol-3-yl)-3H-imidazo[4,5-b]pyridine-7-yl)amino)benzenesulfonamide]
inhibition at 10 µM [1]: 10 to 50% | inhibition at 10 µM [2]: 10 to 50% | inhibition at 10 µM [3]: 10 to 50% | IC50 (MLK3): 41 nM

Cc1cc(-c2nc3c(Nc4cccc(S(N)(=O)=O)c4)c(Br)cnc3[nH]2)c(C)n1-c1ccc2c(c1)OCO2 [Example 41, 3-((2-(1-(benzo[d][1,3]dioxole-5-yl)-2,5-dimethyl-1H-pyrrol-3-yl)-6-bromo-3H-imidazo[4,5-b]pyridine-7-yl)amino)benzenesulfonamide]
inhibition at 10 µM [1]: 10 to 50% | inhibition at 10 µM [2]: 10 to 50% | inhibition at 10 µM [3]: 10 to 50% | IC50 (MLK3): 70 nM

COCCOc1cccc(-n2c(C)cc(-c3nc4ncc(Br)c(Nc5cccc(S(N)(=O)=O)c5)c4[nH]3)c2C)c1 [Example 42, 3-((6-bromo-2-(1-(3-(2-methoxyethoxy)phenyl)-2,5-dimethyl-1H-pyrrol-3-yl)-1H-imidazo[4,5-b]pyridine-7-yl)amino)benzenesulfonamide]
inhibition at 10 µM [1]: > 50% | inhibition at 10 µM [2]: > 50% | inhibition at 10 µM [3]: 10 to 50% | IC50 (MLK3): 83 nM

Cc1cc(-c2nc3ncc(Br)c(Nc4cccc(S(N)(=O)=O)c4)c3[nH]2)c(C)n1-c1ccccc1 [Example 43, 3-((6-bromo-2-(2,5-dimethyl-1-phenyl-1H-pyrrol-3-yl)-1H-imidazo[4,5-b]pyridine-7-yl)amino)benzenesulfonamide]
inhibition at 10 µM [1]: 10 to 50% | inhibition at 10 µM [2]: > 50% | inhibition at 10 µM [3]: 10 to 50% | IC50 (MLK3): 85 nM

COCCOc1ccc(Nc2c(Br)cnc3[nH]c(-c4cc(C)n(-c5cccc(S(N)(=O)=O)c5)c4C)nc23)cc1 [Example 46, 3-(3-(6-bromo-7-((4-(2-methoxyethoxy)phenyl)amino)-3H-imidazo[4,5-b]pyridine-2-yl)-2,5-dimethyl-1H-pyrrol-1-yl)benzenesulfonamide]
inhibition at 10 µM [1]: 10 to 50% | inhibition at 10 µM [2]: > 50% | inhibition at 10 µM [3]: 10 to 50%

CCS(=O)(=O)N1CC[C@H](Nc2c(Br)cnc3[nH]c(-c4cc(C)n(-c5ccc6c(c5)OCO6)c4C)nc23)C1 [Example 49, (S)-2-(1-(benzo[d][1,3]dioxole-5-yl)-2,5-dimethyl-1H-pyrrol-3-yl)-6-bromo-N-(1-(ethylsulfonyl)pyrrolidine-3-yl)-3H-imidazo[4,5-b]pyridine-7-amine]
IC50 (MLK1): 50 nM | IC50 (MLK3): 15 nM

CCS(=O)(=O)N1CC[C@H](Nc2ccnc3[nH]c(-c4cc(C)n(-c5cc(NS(C)(=O)=O)ccc5C)c4C)nc23)C1 [Example 50, N-(3-(3-(7-(((S)-1-(ethylsulfonyl)pyrrolidine-3-yl)amino)-3H-imidazo[4,5-b]pyridine-2-yl)-2,5-dimethyl-1H-pyrrol-1-yl)-4-methylphenyl) methanesulfonamide]
IC50 (MLK1): > 30000 nM | IC50 (MLK3): > 30000 nM

CCS(=O)(=O)N1CC[C@H](Nc2c(Br)cnc3[nH]c(-c4cc(C)n(-c5ccc(C(=O)NCCN(C)C)cc5)c4C)nc23)C1 [Example 62, (S)-4-(3-(6-bromo-7-((1-(ethylsulfonyl)pyrrolidine-3-yl)amino)-3H-imidazo[4,5-b]pyridine-2-yl)-2,5-dimethyl-1H-pyrrol-1-yl)-N-(2-(dimethylamino)ethyl)benzamide]
IC50 (MLK3): 17 nM

CCS(=O)(=O)N1CC[C@H](Nc2c(Br)cnc3[nH]c(-c4cc(C)n(-c5ccc(C(=O)N(C)CCN(C)C)cc5)c4C)nc23)C1 [Example 63, (S)-4-(3-(6-bromo-7-((1-(ethylsulfonyl)pyrrolidine-3-yl)amino)-3H-imidazo[4,5-b]pyridine-2-yl)-2,5-dimethyl-1H-pyrrol-1-yl)-N-(2-(dimethylamino)ethyl)-N-methylbenzamide]
IC50 (MLK3): 14 nM

CCS(=O)(=O)N1CC[C@H](Nc2c(Br)cnc3nc(-c4cc(C)n(-c5cccc(C(=O)NCCN(C)C)c5C)c4C)[nH]c23)C1 [Example 82, 3-(3-(6-bromo-7-(((S)-1-(ethylsulfonyl)pyrrolidine-3-yl)amino)-1H-imidazo[4,5-b]pyridine-2-yl)-2,5-dimethyl-1H-pyrrol-1-yl)-N-(2-(dimethylamino)ethyl)-2-methylbenzamide]
IC50 (MLK3): 14 nM

CCS(=O)(=O)N1CC[C@H](Nc2c(Br)cnc3nc(-c4cc(C)n(-c5cccc(NC(=O)CN(C)C)c5C)c4C)[nH]c23)C1 [Example 84, N-(3-(3-(6-bromo-7-(((S)-1-(ethylsulfonyl)pyrolidine-3-yl)amino)-1H-imidazo[4,5-b]pyridine-2-yl)-2,5-dimethyl-1H-pyrrol-1-yl)-2-methylphenyl)-2-(dimethylamino) acetamide]
IC50 (MLK3): 8 nM

CCS(=O)(=O)N1CC[C@H](Nc2c(Br)cnc3nc(-c4cc(C)n(-c5cccc(NC(=O)CN6CCOCC6)c5C)c4C)[nH]c23)C1 [Example 85, N-(3-(3-(6-bromo-7-(((S)-1-(ethylsulfonyl)pyrrolidine-3-yl)amino)-1H-imidazo[4,5-b]pyridine-2-yl)-2,5-dimethyl-1H-pyrrol-1-yl)-2-methylphenyl)-2-morpholinoacetamide]
IC50 (MLK3): 11 nM

CCS(=O)(=O)N1CC[C@H](Nc2c(Br)cnc3nc(-c4cc(C)n(-c5cccc(NC(=O)CCN(C)C)c5C)c4C)[nH]c23)C1 [Example 86, N-(3-(3-(6-bromo-7-(((S)-1-(ethylsulfonyl)pyrrolidine-3-yl)amino)-1H-imidazo[4,5-b]pyridine-2-yl)-2,5-dimethyl-1H-pyrrol-1-yl)-2-methylphenyl)-3-(dimethylamino) propanamide]
IC50 (MLK1): 15 nM | IC50 (MLK3): 7 nM

CCS(=O)(=O)N1CC[C@H](Nc2c(Br)cnc3nc(-c4cc(C)n(-c5cc(C(=O)N6CCN(C)CC6)ccc5C)c4C)[nH]c23)C1 [Example 92, (3-(3-(6-bromo-7-(((S)-1-(ethylsulfonyl)pyrrolidine-3-yl)amino)-1H-imidazo[4,5-b]pyridine-2-yl)-2,5-dimethyl-1H-pyrrol-1-yl)-4-methylphenyl) (4-methylpiperazine-1-yl) methanone]
IC50 (MLK3): 26 nM

CCS(=O)(=O)N1CC[C@H](Nc2c(Br)cnc3[nH]c(-c4cc(C)n(-c5ccc(C(=O)N6CCN(C)CC6)cc5C)c4C)nc23)C1 [Example 97, (4-(3-(6-bromo-7-(((S)-1-(ethylsulfonyl)pyrrolidine-3-yl)amino)-3H-imidazo[4,5-b]pyridine-2-yl)-2,5-dimethyl-1H-pyrrol-1-yl)-3-methylphenyl) (4-methylpiperazine-1-yl) methanone]
IC50 (MLK3): 20 nM
